Measured values: article PMC7178174, “Residues in Transmembrane Segments of the P2X4 Receptor Contribute to Channel Function and Ethanol Sensitivity” (International Journal of Molecular Sciences, 2020)
Numbering of substitutions follows the chain as printed.

Legend:
Format in all cases: cell-based
[1] = target: T1, rat P2X4R (P2X4 receptor) (Rattus norvegicus, UniProt P51577); assay: two-electrode voltage clamp, Xenopus oocytes, inhibition of ATP-gated current; details: read-out: % inhibition at 100 mM
T1 construct: gene P2rx4; full-length cDNA in pcDNA3, cRNA expressed in Xenopus laevis oocytes; homomeric trimer; ~60 kDa band
T1 sequence (P51577 1-388): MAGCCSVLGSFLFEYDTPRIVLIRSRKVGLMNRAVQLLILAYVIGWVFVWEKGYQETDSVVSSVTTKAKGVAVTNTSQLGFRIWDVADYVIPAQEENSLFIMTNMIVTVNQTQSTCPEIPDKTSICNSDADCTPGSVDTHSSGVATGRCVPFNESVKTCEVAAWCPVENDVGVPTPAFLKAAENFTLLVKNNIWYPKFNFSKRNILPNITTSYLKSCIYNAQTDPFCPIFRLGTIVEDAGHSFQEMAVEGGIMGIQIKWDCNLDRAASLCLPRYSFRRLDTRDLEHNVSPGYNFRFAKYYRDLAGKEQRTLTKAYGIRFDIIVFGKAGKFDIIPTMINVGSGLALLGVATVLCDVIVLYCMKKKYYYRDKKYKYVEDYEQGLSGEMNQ

[2] = target: T1, rat P2X4R (P2X4 receptor); assay: two-electrode voltage clamp, Xenopus oocytes, ATP-gated current
Source text: (§1) two-electrode voltage clamp, Xenopus oocytes, ATP-gated current on rat P2X4R (P2X4 receptor)

[3] = target: T2, rat P2X4R (P2X4 receptor) (Rattus norvegicus, UniProt P51577, A34W); assay: as above
T2 construct: gene P2rx4; full-length cDNA in pcDNA3, cRNA expressed in Xenopus laevis oocytes; homomeric trimer; ~60 kDa band
T2 sequence (P51577 1-388 A34W): T1 sequence (P51577 1-388) with A34W
Source text: as §1

[4] = target: T3, rat P2X4R (P2X4 receptor) (Rattus norvegicus, UniProt P51577, F48A); assay: as above
T3 construct: gene P2rx4; full-length cDNA in pcDNA3, cRNA expressed in Xenopus laevis oocytes; homomeric trimer; ~60 kDa band
T3 sequence (P51577 1-388 F48A): T1 sequence (P51577 1-388) with F48A
Source text: as §1

[5] = target: T4, rat P2X4R (P2X4 receptor) (Rattus norvegicus, UniProt P51577, L37A); assay: as above
T4 construct: gene P2rx4; full-length cDNA in pcDNA3, cRNA expressed in Xenopus laevis oocytes; homomeric trimer; ~60 kDa band
T4 sequence (P51577 1-388 L37A): T1 sequence (P51577 1-388) with L37A
Source text: as §1

[6] = target: T5, rat P2X4R (P2X4 receptor) (Rattus norvegicus, UniProt P51577, R33A); assay: as above
T5 construct: gene P2rx4; full-length cDNA in pcDNA3, cRNA expressed in Xenopus laevis oocytes; homomeric trimer; ~60 kDa band
T5 sequence (P51577 1-388 R33A): T1 sequence (P51577 1-388) with R33A
Source text: as §1

[7] = target: T6, rat P2X4R (P2X4 receptor) (Rattus norvegicus, UniProt P51577, R33K); assay: as above
T6 construct: gene P2rx4; full-length cDNA in pcDNA3, cRNA expressed in Xenopus laevis oocytes; homomeric trimer; ~60 kDa band
T6 sequence (P51577 1-388 R33K): T1 sequence (P51577 1-388) with R33K
Source text: as §1

[8] = target: T7, rat P2X4R (P2X4 receptor) (Rattus norvegicus, UniProt P51577, R33L); assay: as above
T7 construct: gene P2rx4; full-length cDNA in pcDNA3, cRNA expressed in Xenopus laevis oocytes; homomeric trimer; ~60 kDa band
T7 sequence (P51577 1-388 R33L): T1 sequence (P51577 1-388) with R33L
Source text: as §1

[9] = target: T8, rat P2X4R (P2X4 receptor) (Rattus norvegicus, UniProt P51577, R33S); assay: as above
T8 construct: gene P2rx4; full-length cDNA in pcDNA3, cRNA expressed in Xenopus laevis oocytes; homomeric trimer; ~60 kDa band
T8 sequence (P51577 1-388 R33S): T1 sequence (P51577 1-388) with R33S
Source text: as §1

[10] = target: T9, rat P2X4R (P2X4 receptor) (Rattus norvegicus, UniProt P51577, V49G); assay: as above
T9 construct: gene P2rx4; full-length cDNA in pcDNA3, cRNA expressed in Xenopus laevis oocytes; homomeric trimer; ~60 kDa band
T9 sequence (P51577 1-388 V49G): T1 sequence (P51577 1-388) with V49G
Source text: as §1

[11] = target: T10, rat P2X4R (P2X4 receptor) (Rattus norvegicus, UniProt P51577, V49L); assay: as above
T10 construct: gene P2rx4; full-length cDNA in pcDNA3, cRNA expressed in Xenopus laevis oocytes; homomeric trimer; ~60 kDa band
T10 sequence (P51577 1-388 V49L): T1 sequence (P51577 1-388) with V49L
Source text: as §1

[12] = target: T11, rat P2X4R (P2X4 receptor) (Rattus norvegicus, UniProt P51577, W46A); assay: as above
T11 construct: gene P2rx4; full-length cDNA in pcDNA3, cRNA expressed in Xenopus laevis oocytes; homomeric trimer; ~60 kDa band
T11 sequence (P51577 1-388 W46A): T1 sequence (P51577 1-388) with W46A
Source text: as §1

inhibition at 100000 µM [1] [%]	EC50 [2] [µM]	EC50 [3] [µM]	EC50 [4] [µM]	EC50 [5] [µM]	EC50 [6] [µM]	EC50 [7] [µM]	EC50 [8] [µM]	EC50 [9] [µM]	EC50 [10] [µM]	EC50 [11] [µM]	EC50 [12] [µM]	SMILES
44 ± 4	–	–	–	–	–	–	–	–	–	–	–	CCO [ethanol]
–	5.74 ± 0.45	6.5 ± 1.02	3.53 ± 0.73	8.91 ± 0.84	7.04 ± 0.51	6.33 ± 0.93	5.06 ± 0.7	4.94 ± 1.09	9.6 ± 0.9	10.6 ± 1.3	3.58 ± 0.57	Nc1ncnc2c1ncn2[C@@H]1O[C@H](COP(=O)(O)OP(=O)(O)OP(=O)(O)O)[C@@H](O)[C@H]1O [ATP]
